In brackets after ≈: the same amount, converted by molar mass. Where a name gives a salt, the structure may show the parent alone.
Experiments:
Assay type in all cases: physicochemical
[1] = Solubility study in artificial gastric fluid (saturated solutions, HPLC linear equation; Pharmacopoeia and BCS classification); conditions: for Pharmacopoeia of the People's Republic of China Solubility level / Solubility in artificial gastric fluid, 1 h / Solubility in artificial gastric fluid, 4 h / Solubility in artificial gastric fluid, 24 h / BCS level (Do): artificial gastric fluid; for Solubility in artificial gastric fluid compared with water: artificial gastric fluid versus water; for Solubility in artificial gastric fluid, 1 h / Solubility in artificial gastric fluid, 4 h / Solubility in artificial gastric fluid, 24 h: saturated solution; for Solubility in artificial gastric fluid, 1 h: standing 1 hour; for Solubility in artificial gastric fluid, 4 h: standing 4 hours; for Solubility in artificial gastric fluid, 24 h: standing 24 hours; for BCS level (Do): Do=(Mo/Vo)/Cs, Mo 80 mg, Vo about 250 ml, Do≤1 solubility high, Do>1 low; for Degradation in the solubility study: water and artificial gastric fluid, up to 24 hours
Source text: (§1) Various pharmaceutically acceptable salts of EGFR inhibitor present in form of crystal in Examples 1 to 3 and 5 to 6 were classified with reference to the relevant requirements of the Pharmacopoeia of the People's Republic of China and the Bio-pharmaceutics Classification System (BCS).
(§2) (a) Relevant Requirements of Solubility in the Pharmacopoeia of the People's Republic of China, 2015 Edition, General Notices:
(§3) (b) Relevant Requirements of Solubility in BCS: Do=(Mo/Vo)/Cs;
(§4) wherein Do: dose index; Mo: highest single dose of the drug (with reference to the relevant dose of osimertinib, tentatively set to 80 mg); Vo: the volume of body fluid required for dissolving the drug (about 250 ml); Cs: saturated solubility of the drug;
(§5) if Do≤1, solubility is high; and if Do>1, solubility is low.
(§6) Using an EGFR inhibitor free base as a control, linear regression was carried out by plotting peak area versus concentration, and the corresponding linear equation was obtained in the range of 0.025 to 1.5 mg/ml: A=19775.0411c+2.4256, r=1.0000.
Artificial gastric fluid was used as solvent. An appropriate amount of the EGFR inhibitor mesylate salt (crystal form A), p-toluenesulfonate salt (crystal form B), phosphate salt (crystal form C), phosphate salt (amorphous), hydrochloride salt (crystal form C), and citrate salt (crystal form E) prepared in Examples 1 to 6 was weighed, and prepared into saturated solutions. Samples were taken after standing for 1 hour, 4 hours, and 24 hours, respectively, and the concentration of each sample in saturation state was calculated according to the linear equation.

[2] = One month accelerated stability study at 40° C./75% RH (shape, purity, XRPD); conditions: for XRPD pattern (0 month versus 1 month) / Appearance, 1 month / Purity (%), 1 month: after 1 month at 40° C./75% RH; for Appearance, 0 month / Purity (%), 0 month: start of study (0 month)
Method: The six pharmaceutically acceptable salts of EGFR inhibitor in Examples 1 to 6 were placed in a condition of 40° C./75% RH, and a one month accelerated stability study was carried out. Samples were taken at the end of 0 and 1 month respectively, and emphasis was placed upon the shape, purity and crystal form stability (XRPD pattern) of the samples.
Stable refers to no occurrence of degradation and no detection of transformation to other crystal forms by analytical means such as chromatography and XRPD.

[3] = Solubility study in water (saturated solutions, HPLC linear equation; Pharmacopoeia and BCS classification); conditions: for BCS level (Do): Do=(Mo/Vo)/Cs, Mo 80 mg, Vo about 250 ml, Do≤1 solubility high, Do>1 low; for Solubility in water, 1 h / Solubility in water, 4 h / Solubility in water, 24 h: saturated solution; for Solubility in water, 1 h: standing 1 hour; for Solubility in water, 4 h: standing 4 hours; for Solubility in water, 24 h: standing 24 hours
Source text: as §1, §2, §3, §4, §5, §6
Water was used as solvent. An appropriate amount of the EGFR inhibitor mesylate salt, p-toluenesulfonate salt, phosphate salt, hydrochloride salt and citrate salt prepared in Examples 1 to 3 and 5 to 6 was weighed, and prepared into saturated solutions. Samples were taken after standing for 1 hour, 4 hours, and 24 hours, respectively, and the concentration of each sample in saturation state was calculated according to the linear equation.

[4] = Hygroscopicity study of crystal forms (Chinese Pharmacopoeia 2015, part 4, appendix 9103); conditions: for Hygroscopicity as compared with that of the EGFR inhibitor present in a free base form: 25° C./RH 80%; for Weight gain over 6 hours (%) / Weight gain over 24 hours (%) / Hygroscopicity: 25° C.±1° C., relative humidity 80%±2%; for Hygroscopicity: Pharmacopoeia class
Method: Hygroscopicity comparison study was carried out for various pharmaceutically acceptable salts of EGFR inhibitor present in the form of crystal in Examples 1 to 3 and 5 to 6, the amorphous EGFR inhibitor phosphate salt in Example 4, and the EGFR inhibitor present in a free base form. Tests were conducted according to the method in the Pharmacopoeia of the People's Republic of China, 2015 edition, part 4, appendix 9103 (temperature: 25° C.±1° C., relative humidity: 80%±2%), and the results were as shown in Table 6.
With regard to the description of hygroscopic properties and definition of hygroscopic weight gain, refer to the Pharmacopoeia of the People's Republic of China, 2015 edition, part 4, appendix 9103, experimental guideline of drug hygroscopicity, herein descried by way of example as follows.
Deliquescence: absorb enough water to form a liquid.
Very hygroscopic: hygroscopic weight gain […] 15%.
Hygroscopic: hygroscopic weight gain less than 15% but not less than 2%.
Non- or almost non-hygroscopic: hygroscopic weight gain less than 0.2%.

[5] = Solubility study in water (saturated solutions, HPLC linear equation; Pharmacopoeia and BCS classification); conditions: in water and artificial gastric fluid
[6] = listed as citrate salt (crystal form E)
[7] = listed as hydrochloride salt (crystal form D)
[8] = listed as mesylate salt (crystal form A)
[9] = listed as p-toluenesulfonate salt (crystal form B)

SMILES | Pharmacopoeia of the People's Republic of China Solubility level [1] | Solubility in artificial gastric fluid compared with water [1] | Solubility in artificial gastric fluid, 1 h [1] [mg/mL] | Solubility in artificial gastric fluid, 4 h [1] [mg/mL] | Solubility in artificial gastric fluid, 24 h [1] [mg/mL] | BCS level (Do) [1] | Degradation in the solubility study [1] | XRPD pattern (0 month versus 1 month) [2] | Pharmacopoeia of the People's Republic of China Solubility level [3] | BCS level (Do) [3] | Solubility in water, 1 h [3] [mg/mL] | Solubility in water, 4 h [3] [mg/mL] | Solubility in water, 24 h [3] [mg/mL] | Weight gain over 6 hours (%) [4] [%] | Weight gain over 24 hours (%) [4] [%] | Hygroscopicity [4] | Solubility with reference to Pharmacopoeia solubility classification [5] | further results
C=CC(=O)Nc1cc(Nc2nccc(-c3cn(C)c4cccnc34)n2)c(OC)cc1N(C)CCN(C)C [citrate salt] | freely soluble | higher solubility in artificial gastric fluid than in water | 168.51 | 196.47 | 176.88 | 0.0018 < 1 | no significant degradation | consistent | freely soluble | 0.0024 < 1 | 143.59 | 137.34 | 133.57 | 2.23 | 2.48 | hygroscopic | high | Appearance, 1 month [2, 6]: light grey solid; Purity (%), 1 month [2, 6]: 99.1%; Appearance, 0 month [2, 6]: light grey solid; Purity (%), 0 month [2, 6]: 98.9%; Hygroscopicity as compared with that of the EGFR inhibitor present in a free base form ([4]; listed as citrate salt crystal form E): comparable hygroscopicity
C=CC(=O)Nc1cc(Nc2nccc(-c3cn(C)c4cccnc34)n2)c(OC)cc1N(C)CCN(C)C [free base] | – | higher solubility in artificial gastric fluid than in water | 0.84 (≈ 1680 µM) | 0.86 (≈ 1720 µM) | 0.71 (≈ 1420 µM) | 0.4515 < 1 | no significant degradation | – | – | 606.30 > 1 | <0.025 | <0.025 | <0.025 | 1.7 | 2.2 | hygroscopic | – | –
C=CC(=O)Nc1cc(Nc2nccc(-c3cn(C)c4cccnc34)n2)c(OC)cc1N(C)CCN(C)C [hydrochloride salt] | soluble | higher solubility in artificial gastric fluid than in water | 83.79 | 79.18 | 70.03 | 0.0046 < 1 | no significant degradation | consistent | sparingly soluble | 0.0302 < 1 | 13.43 | 11.09 | 10.59 | 0.72 | 1.29 | slightly hygroscopic | – | Appearance, 1 month [2, 7]: tan solid; Purity (%), 1 month [2, 7]: 99.3%; Appearance, 0 month [2, 7]: tan solid; Purity (%), 0 month [2, 7]: 99.2%; Hygroscopicity as compared with that of the EGFR inhibitor present in a free base form ([4]; listed as hydrochloride salt crystal form D): lower hygroscopicity
C=CC(=O)Nc1cc(Nc2nccc(-c3cn(C)c4cccnc34)n2)c(OC)cc1N(C)CCN(C)C [mesylate salt] | freely soluble | higher solubility in artificial gastric fluid than in water | 248.77 | 370.37 | 379.12 | 0.0008 < 1 | no significant degradation | consistent | freely soluble | 0.0013 < 1 | 223.02 | 224.00 | 255.75 | 6.86 | 10.64 | hygroscopic | high | Appearance, 1 month [2, 8]: light brown solid; Purity (%), 1 month [2, 8]: 99.2%; Appearance, 0 month [2, 8]: light brown solid; Purity (%), 0 month [2, 8]: 99.0%; Hygroscopicity as compared with that of the EGFR inhibitor present in a free base form ([4]; listed as mesylate salt crystal form A): higher hygroscopicity
C=CC(=O)Nc1cc(Nc2nccc(-c3cn(C)c4cccnc34)n2)c(OC)cc1N(C)CCN(C)C [p-toluenesulfonate salt] | soluble | higher solubility in artificial gastric fluid than in water | 46.21 | 46.75 | 47.03 | 0.0068 < 1 | no significant degradation | consistent | slightly soluble | 0.2057 < 1 | 1.82 | 1.78 | 1.56 | 0.04 | 0.04 | – | – | Appearance, 1 month [2, 9]: light tan solid; Purity (%), 1 month [2, 9]: 98.7%; Appearance, 0 month [2, 9]: light tan solid; Purity (%), 0 month [2, 9]: 98.7%; Hygroscopicity as compared with that of the EGFR inhibitor present in a free base form ([4]; listed as p-toluenesulfonate salt crystal form B): lower hygroscopicity
C=CC(=O)Nc1cc(Nc2nccc(-c3cn(C)c4cccnc34)n2)c(OC)cc1N(C)CCN(C)C [phosphate salt (amorphous)] | freely soluble | higher solubility in artificial gastric fluid than in water | 123.56 | 136.76 | 138.91 | 0.0023 < 1 | no significant degradation | consistent | freely soluble | 0.0034 < 1 | 88.32 | 92.14 | 94.56 | 1.2 | 1.5 | slightly hygroscopic | high | Appearance, 1 month [2]: light grey solid; Purity (%), 1 month [2]: 98.7%; Appearance, 0 month [2]: light grey solid; Purity (%), 0 month [2]: 98.9%; Hygroscopicity as compared with that of the EGFR inhibitor present in a free base form ([4]; listed as amorphous phosphate salt): lower hygroscopicity

— patent publication US10759797B2, “Pharmaceutically acceptable salt of EGFR inhibitor, crystal form thereof, preparation method therefor and application thereof” (Wuxi Shuangliang Biotechnology Co., Ltd., priority 2017, dated 2020)
